Reference: USRE48461E1, “Modulation of androgen receptor expression” (Ionis Pharmaceuticals, Inc., priority 2012, dated 2021)
Oligonucleotides are written 5' to 3', each unit as a sugar letter and its base; * is a phosphorothioate linkage, no mark a phosphodiester; rarer units and linkages stand in square brackets, end groups in braces. Plain capitals give the bases only. e = 2'-O-(2-methoxyethyl) (MOE); k = constrained ethyl (cEt); [5mC] = 5-methylcytosine; d = 2'-deoxy (DNA)

What was measured:
AR mRNA [1] = test: AR mRNA in LnCaP cells by free uptake (hAR_LTS00943); type: cell-based, human; details: 24 hrs
Experimental: Cells were plated at a concentration of 4,000 cells/well in 96-well plates. ISIS oligonucleotides, specified in Table 68, were added individually at 0.02 μM, 0.10 μM, 0.50 μM, 2.50 μM, or 10.00 μM. After an incubation period of 24 hrs, mRNA levels were measured using primer probe set hAR_LTS00943.

AR mRNA [2] = test: Dose-dependent antisense inhibition of human AR in HuVEC cells (electroporation, qRT-PCR RTS3559, IC50); type: cell-based; details: HuVEC
How it was run: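 HuVEC cells dosed with antisense oligonucleotides by electroporation and treated approximately 16 hours. AR mRNA quantified by real-time qPCR with primer probe set RTS3559 and normalised to total RNA by RIBOGREEN; IC50 from dose-response.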

AR mRNA [3] = test: Antisense inhibition of human AR in HuVEC cells, single concentration (electroporation, qRT-PCR RTS3559); type: cell-based
How it was run: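 AR mRNA levels were measured with human primer-probe set RTS3559 and adjusted for total RNA (RIBOGREEN). Cells were HuVEC, with each antisense oligonucleotide delivered by electroporation at one concentration.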

[4] = Table 36, electroporation, approximately 16 hours
[5] = Table 25, 1,000 nM oligonucleotide, electroporation, approximately 24 hours, relative to untreated control

Substance	Percent inhibition of AR mRNA (AR mRNA [1]; 0.02 μM)	Percent inhibition of AR mRNA (AR mRNA [1]; 0.1 μM)	Percent inhibition of AR mRNA (AR mRNA [1]; 0.5 μM)	Percent inhibition of AR mRNA (AR mRNA [1]; 10 μM)	percent inhibition of AR (AR mRNA [2]; 62.5 nM, ~16 h, Table 10)	percent inhibition of AR (AR mRNA [2]; 125.0 nM, ~16 h, Table 10)	percent inhibition of AR (AR mRNA [2]; 500.0 nM, ~16 h, Table 10)	percent inhibition of AR (AR mRNA [2]; 1000.0 nM, ~16 h, Table 10)	IC50 (AR mRNA [2]; ~16 h, Table 10)	further results
569213 (antisense kT*kG*kA*dT*dT*dT*dA*dA*dT*dG*dG*dT*kT*kG*k[5mC]*eA) [compound 569213]	3%	0%	31%	78%	–	–	–	–	–	percent inhibition of AR (AR mRNA [2]; 31.25 nM, ~16 h, Table 8): 35%; percent inhibition of AR (AR mRNA [2]; 62.5 nM, ~16 h, Table 8): 53%; percent inhibition of AR (AR mRNA [2]; 125.0 nM, ~16 h, Table 8): 65%; percent inhibition of AR (AR mRNA [2]; 500.0 nM, ~16 h, Table 8): 94%; percent inhibition of AR (AR mRNA [2]; 1000.0 nM, ~16 h, Table 8): 96%; IC50 (AR mRNA [2]; ~16 h, Table 8): 60 nM; % inhibition (AR mRNA [3]; 250 nM ASO, ~24 h, Table 7): 69%
569216 (antisense eT*kG*kA*kT*dT*dT*dA*dA*dT*dG*dG*dT*kT*kG*k[5mC]*eA) [compound 569216]	15%	17%	49%	82%	–	–	–	–	–	percent inhibition of AR (AR mRNA [2]; 31.25 nM, ~16 h, Table 8): 38%; percent inhibition of AR (AR mRNA [2]; 62.5 nM, ~16 h, Table 8): 51%; percent inhibition of AR (AR mRNA [2]; 125.0 nM, ~16 h, Table 8): 68%; percent inhibition of AR (AR mRNA [2]; 500.0 nM, ~16 h, Table 8): 91%; percent inhibition of AR (AR mRNA [2]; 1000.0 nM, ~16 h, Table 8): 96%; IC50 (AR mRNA [2]; ~16 h, Table 8): 50 nM; % inhibition (AR mRNA [3]; 250 nM ASO, ~24 h, Table 7): 68%
569221 (antisense eT*eG*kA*kT*kT*dT*dA*dA*dT*dG*dG*dT*dT*kG*k[5mC]*kA) [compound 569221]	18%	31%	49%	91%	–	–	–	–	–	percent inhibition of AR (AR mRNA [2]; 62.5 nM, ~16 h, Table 12): 12%; percent inhibition of AR (AR mRNA [2]; 125.0 nM, ~16 h, Table 12): 32%; percent inhibition of AR (AR mRNA [2]; 500.0 nM, ~16 h, Table 12): 57%; percent inhibition of AR (AR mRNA [2]; 1000.0 nM, ~16 h, Table 12): 73%; IC50 (AR mRNA [2]; ~16 h, Table 12): 294 nM
569227 (antisense eT*eG*kA*kT*kT*dT*dA*dA*dT*dG*dG*dT*kT*kG*k[5mC]*eA) [compound 569227]	0%	0%	4%	55%	8%	40%	51%	73%	388 nM	percent inhibition of AR (AR mRNA [2]; 31.25 nM, ~16 h, Table 14): 13%; percent inhibition of AR (AR mRNA [2]; 62.5 nM, ~16 h, Table 14): 22%; percent inhibition of AR (AR mRNA [2]; 125.0 nM, ~16 h, Table 14): 45%; percent inhibition of AR (AR mRNA [2]; 500.0 nM, ~16 h, Table 14): 61%; percent inhibition of AR (AR mRNA [2]; 1000.0 nM, ~16 h, Table 14): 74%; IC50 (AR mRNA [2]; ~16 h, Table 14): 255 nM; % inhibition (AR mRNA [3]; 1,000 nM ASO, ~24 h, Table 13): 51%
579666 (antisense eT*kG*kA*eT*eT*kT*kA*dA*dT*dG*dG*dT*dT*dG*k[5mC]*kA) [compound 579666]	0%	8%	30%	68%	33%	34%	64%	80%	229 nM	–
579667 (antisense eT*kT*kG*eA*eT*kT*kT*dA*dA*dT*dG*dG*dT*dT*kG*k[5mC]) [compound 579667]	0%	0%	8%	40%	30%	29%	36%	76%	411 nM	–
584233 (kG*kG*kA*dT*dT*d[5mC]*dT*d[5mC]*dT*dA*d[5mC]*dA*d[5mC]*kA*k[5mC]*kA; antisense) [compound 584233]	–	–	–	–	–	–	–	–	–	percent inhibition of AR, 46.9 nM (AR mRNA [2]; [4]): 0%; percent inhibition of AR, 187.5 nM (AR mRNA [2]; [4]): 30%; percent inhibition of AR, 750.0 nM (AR mRNA [2]; [4]): 66%; percent inhibition of AR, 3000.0 nM (AR mRNA [2]; [4]): 86%; IC50 (AR mRNA [2]; [4]): 390 nM; % inhibition (AR mRNA [3]; [5]): 62%
584242 (k[5mC]*k[5mC]*kA*dT*dT*dT*dG*dT*dG*d[5mC]*d[5mC]*dA*dA*kA*k[5mC]*k[5mC]; antisense) [compound 584242]	–	–	–	–	–	–	–	–	–	percent inhibition of AR, 46.9 nM (AR mRNA [2]; [4]): 12%; percent inhibition of AR, 187.5 nM (AR mRNA [2]; [4]): 38%; percent inhibition of AR, 750.0 nM (AR mRNA [2]; [4]): 66%; percent inhibition of AR, 3000.0 nM (AR mRNA [2]; [4]): 93%; IC50 (AR mRNA [2]; [4]): 270 nM; % inhibition (AR mRNA [3]; [5]): 62%
